Assay results: patent publication US20090170939A1, “Use of Fenofibrate or a Derivative Thereof for Preventing Diabetic Retinopathy” (Laboratoires Fournier S.A., priority 2005, published 2009)

Test system: diabetic retinopathy in patients with type 2 diabetes
Test: FIELD study: laser treatment for diabetic retinopathy (tertiary outcome)
Assay type: in vivo, human
Conditions: follow-up more than 5 years
Source text: As fibrates are known to correct the typical dyslipidaemia of diabetes, their role in cardiovascular risk reduction in diabetes may be especially important. A study called Fenofibrate Intervention and Event Lowering in Diabetes (FIELD) has been carried out which study is a multicentre, double-blind, placebo-controlled trail evaluating the effects on coronary morbidity and mortality of long-term treatment with fenofibrate to elevate high-density lipoprotein (HDL) cholesterol levels and lower triglyceride (TG) levels in patients with type 2 diabetes and total blood cholesterol between 3 and 6.5 mmol/L (115 and 250 mg/dL) at study entry. In type 2 diabetes, rates of coronary heart disease (CDH) are 3 to 4 times higher than those of persons without diabetes at any given level of blood cholesterol, and at any given age. […] Further, people with type 2 diabetes have both higher in hospital mortality after myocardial infarction (MI) and a poorer outcome in the subsequent years, losing on average between 5 and 10 years of life expectancy.
The study was is randomized, double-blind, placebo-controlled parallel-group trial among middle-aged to elderly people with type 2 diabetes mellitus considered to be at increased risk of CHD. Those with and without pre-existing vascular disease or other lipid abnormalities, such as low HDL cholesterol and elevated TG, were eligible, provided the total blood cholesterol level at screening fell between 3.0 and 6.5 mmol/L (about 115-250 mg/dL) plus either a total-to-HDL cholesterol ratio of >4.0 or a blood TG level >1.0 mmol/L (88.6 mg/dL). The study has been conducted in 63 clinical centres in Australia (39), Finland (9) and New Zealand (15).
The underlying principle guiding recruitment of patients into the study was that of clinical uncertainty: that is, patients were only to be considered if the patients' treating physicians were substantially uncertain about the value of lipid-modifying therapy for that particular individual and felt that there was no indication for lipid-modifying therapy. […]

CC(C)OC(=O)C(C)(C)Oc1ccc(C(=O)c2ccc(Cl)cc2)cc1 [Fenofibrate, 1-methylethyl ester (isopropyl ester) of fenofibric acid]
Patients with laser treatment for diabetic retinopathy (one or more laser treatments), % (fenofibrate 200 mg comicronized, one capsule daily, type 2 diabetes): 3.6%
Incident cases (first laser treatment for retinopathy post-randomisation), % (fenofibrate 200 mg daily): 2.3%
Prevalent cases (all reported laser treatments post-randomisation), % (fenofibrate 200 mg daily): 7.3%
